Experimental data taken from US8575107B2, “Clusterin derived peptide” (Compugen Ltd., priority 2008, dated 2013).
Where a SMILES comes first, the peptide text is derived from it.

Experiments:
[1] = system: HT29 colorectal adenocarcinoma cells; assay: MTT assay, growth of HT29 cells treated with CGEN-CL1; format: cell-based
Description: CGEN-CL1 as synthesized in Example 1 was analyzed for its ability to induce growth arrest in various cancer cell lines, such as: breast cancer cell line MCF-7 (Adenocarcinoma, Breast, HTB-22, ATCC), PC3 (Adenocarcinoma, Prostate, CRL-1435, ATCC), A549 (carcinoma, Lung, CCL-185, ATCC), HT-29 (Colorectal Adenocarcinoma, Colon, HTB-38, ATCC) and SK-mel 5 (Melanoma, Skin, HTB70, ATCC).
HT29 cells were seeded at 10,000 cells per well in 150 μl of media (DMEM medium+5% FBS) in a 96 well plate.
CGEN-CL1 (1 mg dissolved in 2500 of Sodium bi-carbonate to a stock concentration of 4 mg/ml) was added to the wells in 500 of medium (final volume of 2000) as detailed in Table 2. The relative growth was normalized to controls where CGEN-CL1 was not added to wells.
(§1) 20 μl of MTT (3-(4,5-Dimethyl-2-thiazolyl)-2,5-diphenyl-2H-tetrazolium bromide) solution (Sigma Cat#M5655, lot#085k5322, 1 gr was dissolved in 200 ml H2O and filtered, giving a final concentration of 5 mg/ml) was added to each well and incubated for 4 hours at 37° C. after which the medium was vacuumed and 100 μl of DMSO was added to each well. Absorbance was measured in an ELISA reader at 492 nm.

[2] = system: cleaved PARP in PC3 cells; assay: Detection of cleaved PARP by Western blot in PC3 cells; format: cell-based
Description: Apoptosis was analyzed either by cell cycle analysis or by PARP cleavage estimation. The amount of cleaved PARP is proportional to the amount of cells undergoing apoptosis (see for example Boulares A. H., et al., 1999, JBC 274:22932-22940).
FIG. 3 presents results of detection of cleaved PARP in PC3 cells treated with CGEN-CL1 combined with or without Paclitaxel. PC3 cells were treated with CGEN-CL1 (SEQ ID NO:1), alone or in combination with Paclitaxel, for 48, 72 and 96 hours. Cleaved PARP was detected in cell lysates by Western blot analysis. […] Elevation of the amount of cleaved PARP indicates an increase in apoptotic cells.

[3] = system: MCF-7 breast cancer cell lines; assay: MTT assay, CGEN-CL1 and/or paclitaxel on MCF-7 cells; format: cell-based
Description: as §1
(§2) A549, PC3 and MCF7 cells were seeded at 6000, 8000 and 10,000 cells per well respectively in 150 μl of media (DMEM medium+5% FBS) in 96 well plates.
(§3) Paclitaxel (Sigma T7402, Lot. 036k1217, Mw 853.9, 5 mg dissolved in 585 μl DMSO to a stock concentration of 10 mM, stored at −20° C.) and/or CGEN-CL1 (1 mg dissolved in 250 μl of sodium bi-carbonate to a stock concentration of 4 mg/ml) were added to the wells in 25 μl of medium (final volume of 200 μl) as detailed in Table 3. The relative growth was normalized to controls where neither paclitaxel nor CGEN-CL1 was added to wells.
(§4) An MTT assay was performed as described above in Example 2.

[4] = system: lung carcinoma cell line A549; assay: MTT assay, CGEN-CL1 and/or paclitaxel on A549 cells; format: cell-based, human
Description: as §1, §2, §3, §4

[5] = system: A549 human non-small cell lung cancer cells; assay: In vivo A549 mouse xenograft model, CGEN-CL1 with paclitaxel; design: species or system Balb/c Nu/Nu female mice; details: A549 tumor bearing BALB/c nu/nu mice; CGEN-CL1 sc daily around tumor + paclitaxel 15 mg/kg IP; vs paclitaxel and vehicle
Description: In order to test the in-vivo activity of CGEN-CL1, Balb/c Nu/Nu female mice (10 in each group) were inoculated with 5×10^6 A549 human non-small cell lung cancer cells. Treatment was initiated when tumors reached 400-500 mm^3. One group received 15 mg/kg of paclitaxell (IP once every three days) and CGEN-CL1 [SEQ ID NO:1] (daily injected sub-cutaneously (sc) at the surrounding of the tumor) whereas the second group received paclitaxel and saline (at the same dose and route of administration). Tumor volume was measured every three days.

[6] = target: T1, recombinant human clusterin (Homo sapiens, UniProt P10909); assay: BIAcore SPR, CGEN-CL1 co-incubated with partner helix, binding to clusterin; details: CGEN-CL1 and SEQ ID NO:5, 10 μM each, preincubated 30 minutes
T1 construct: purchased Biovendor RD172034100
T1 sequence (P10909 23-449): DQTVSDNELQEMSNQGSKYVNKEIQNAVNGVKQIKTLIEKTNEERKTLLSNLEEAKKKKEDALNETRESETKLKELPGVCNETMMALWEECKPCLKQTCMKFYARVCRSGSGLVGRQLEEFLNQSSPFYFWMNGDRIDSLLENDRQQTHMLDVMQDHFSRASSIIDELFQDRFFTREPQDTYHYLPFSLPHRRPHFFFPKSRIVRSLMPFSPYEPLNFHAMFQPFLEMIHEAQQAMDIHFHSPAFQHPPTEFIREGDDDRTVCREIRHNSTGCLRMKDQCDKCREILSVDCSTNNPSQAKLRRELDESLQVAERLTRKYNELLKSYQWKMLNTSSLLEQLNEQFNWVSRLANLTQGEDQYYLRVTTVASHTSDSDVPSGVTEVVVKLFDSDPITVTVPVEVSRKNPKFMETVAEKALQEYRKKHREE
Description: Peptide-protein interaction was analyzed using surface plasmon resonance. Analysis of the interaction between CGEN-CL1 [SEQ ID NO:1] and recombinant human clusterin (Biovendor, Modrice, Czech republic cat no: RD172034100) was conducted using the BIAcore biosensor (Pharmacia Biosensor, Uppsala, Sweden). Clusterin was immobilized directly to a CM5 sensor chip (2000 resonance units (RU)). Solution containing either 10 μM of CGEN-CL1 [SEQ ID NO:1] peptide or a mixture of CGEN-CL1 and its partner helix (SEQ ID NO:5), 10 μM each, preincubated for 30 minutes at room temperature, was injected to the BIAcore. As a background, the solutions were also injected onto an empty flow cell with no immobilized ligand and the binding levels achieved were subtracted. Data was analyzed using BIAevaluation software.

[7] = system: breast cancer cell line MCF-7
Description: MCF7 cells were seeded at 10,000 cells per well in 150 μl of media (DMEM medium+5% FBS) in a 96 well plate.

[8] = system: A549 human non-small cell lung cancer cells
Description: A549 cells were seeded at 6000 cells per well in 150 μl of media (DMEM medium+5% FBS) in a 96 well plate.

In the case of CC[C@H](C)[C@H](NC(=O)[C@H](CCCNC(=N)N)NC(=O)[C@H](CC(=O)O)NC(=O)CNC(=O)[C@H](CC(N)=O)NC(=O)[C@H](CCSC)NC(=O)[C@H](Cc1c[nH]c2ccccc12)NC(=O)[C@H](Cc1ccccc1)NC(=O)[C@H](Cc1ccc(O)cc1)NC(=O)[C@H](Cc1ccccc1)NC(C)=O)C(=O)N[C@@H](CC(=O)O)C(=O)N[C@@H](CO)C(=O)N[C@@H](CC(C)C)C(=O)N[C@@H](CC(C)C)C(=O)N[C@@H](CCC(=O)O)C(=O)N[C@@H](CC(N)=O)C(=O)N[C@@H](CC(=O)O)C(=O)N[C@@H](CCCNC(=N)N)C(=O)N[C@@H](CCC(N)=O)C(=O)N[C@@H](CCC(N)=O)C(=O)N[C@H](C(N)=O)[C@@H](C)O [CGEN-CL1] (Ac-FYFWMNGDRIDSLLENDRQQT-NH2), the “growth inhibition as revealed by cellular viability” value [1] is reported as “evoked growth inhibition”, the “amount of cleaved PARP” value ([2]; PC3 cells treated with Paclitaxel plus CGEN-CL1, 48 hours) is reported as “dramatically enhanced the amount of cleaved PARP” and the “amount of cleaved PARP” value ([2]; PC3 cells, CGEN-CL1 alone, 48 hours) is reported as “caused an enhancement in the amount of cleaved PARP”. The “amount of cleaved PARP” value ([2]; PC3 cells, CGEN-CL1 alone, 72 hours, administration at time zero and after 48 hours) was “significant increase in cleaved PARP”, the “Relative Growth” value ([3]; CGEN-CL1 7.1 nM + Paclitaxel 2.25 nM) was 0.62 and the “Relative Growth” value ([3]; CGEN-CL1 7.1 nM + Paclitaxel 30.00 nM) was 0.31. The “Relative Growth” value ([3]; CGEN-CL1 7.1 nM alone) was 0.68, the “Relative Growth” value ([3]; CGEN-CL1 22.3 nM + Paclitaxel 2.25 nM) was 0.53 and the “Relative Growth” value ([3]; CGEN-CL1 22.3 nM + Paclitaxel 30.00 nM) was 0.28. For the same compound, the “Relative Growth” value ([3]; CGEN-CL1 22.3 nM alone) was 0.61, the “Relative Growth” value ([3]; CGEN-CL1 63.2 nM + Paclitaxel 2.25 nM) was 0.46 and the “Relative Growth” value ([3]; CGEN-CL1 63.2 nM + Paclitaxel 30.00 nM) was 0.24. The “Relative Growth” value ([3]; CGEN-CL1 63.2 nM alone) was 0.48, the “Relative Growth” value ([3]; CGEN-CL1 185.9 nM + Paclitaxel 2.25 nM) was 0.45 and the “Relative Growth” value ([3]; CGEN-CL1 185.9 nM + Paclitaxel 30.00 nM) was 0.25. For the same compound, the “Relative Growth” value ([3]; CGEN-CL1 185.9 nM alone) was 0.49, the “Relative Growth” value ([3]; CGEN-CL1 557.6 nM + Paclitaxel 2.25 nM) was 0.42 and the “Relative Growth” value ([3]; CGEN-CL1 557.6 nM + Paclitaxel 30.00 nM) was 0.23. For the same compound, the “Relative Growth” value ([3]; CGEN-CL1 557.6 nM alone) was 0.46, the “effect of timing on cell growth” value ([3]; CGEN-CL1 added 24 hours after 30 nM paclitaxel vs concomitantly) was “need for lower concentrations of CGEN-CL1 to achieve the same effect” and the “effect on growth inhibition when given in combination” value ([3]; CGEN-CL1 and paclitaxel in combination) was “synergistic effect”. The “CGEN-CL1 concentration giving further inhibition of cell proliferation (as little as)” value ([3]; at 30 nM Paclitaxel) was 7.1 nM, the “CGEN-CL1 concentration that sensitizes cells to sub-minimal concentrations of paclitaxel (as little as)” value [4] was 1 nM and the “maximal effect (inhibition) in combination with paclitaxel” value ([4]; CGEN-CL1 + paclitaxel) was 73%. The “maximal effect (inhibition) alone” value ([4]; single agent) was 48%, the “reduction in tumor volume” value [5] was 25-30% and the “binding of CGEN-CL1 to recombinant Clusterin after co-incubation with partner helix” value [6] was “completely abolished the binding”. The EC50 [7] was 56 nM, the “concentration achieving maximal growth inhibition” value ([7]; MCF-7 breast cancer cells, MTT) was “approximately 900 nM” and the “concentration with a growth inhibiting effect (as little as)” value ([7]; MCF-7 breast cancer cells, MTT) was 50 nM. The EC50 [8] was 0.95 nM.
